Data as given in patent publication US10030059B2, “Modulators of gamma-C-cytokine activity” (Bioniz, LLC, priority 2015, dated 2018).
Peptide text beside a SMILES is read from it.

System: T-cells in HAM/TSP patient PBMC
Experiment: Ex vivo spontaneous T-cell proliferation assay using HAM/TSP peripheral blood
Type: cell-based, human
Conditions: HAM/TSP peripheral blood ex vivo culture
Description: Proliferation assays were performed on HAM/TSP patient blood samples with and without the addition of BNZ-γ. These assays evaluated the ability of BNZ-γ to block the function of cytokines, such as IL-2 and IL-15, present in the ex vivo HAM/TSP patient blood culture and prevent spontaneous T-cell proliferation in these samples.
In an ex vivo spontaneous T-cell proliferation assay, PBMC from HAM/TSP patient was cultured at 1×10(6) cells per well of a 96 well plate in RPMI-10% FCS. Increasing concentrations of BNZ-γ peptide were added to each well. As a control, an irrelevant peptide was used in similar fashion. The cells were incubated in a 37° C. CO2 incubator for 3, 4, and 6 days. The amount of 1 μCi of ^3H-thymidine was added to the cells. After an additional 6 hour incubation, cells were harvested their proliferation rate was measured. As indicated in FIG. 4A-FIG. 4D, BNZ-γ peptide inhibits the spontaneous proliferation of T-cells in HAM/TSP culture at a concentration of about 1 μg/ml.
Other immunological markers were additionally measured in this assay. The percentage of the viral specific CD8 cells was measured during the ex vivo culture using viral protein tetramers. The population of CD4+CD25+ cells, a marker of T-cell activation, as well as Ki67 staining, a marker of T-cell proliferation, was monitored in a flow cytometry assay.

CC[C@H](C)[C@H](N)C(=O)N[C@@H](CCCCN)C(=O)N[C@@H](CCC(=O)O)C(=O)N[C@@H](Cc1ccccc1)C(=O)N[C@@H](CC(C)C)C(=O)N[C@@H](CCC(N)=O)C(=O)N[C@@H](CCCNC(=N)N)C(=O)N[C@@H](Cc1ccccc1)C(=O)N[C@H](C(=O)N[C@@H](Cc1c[nH]cn1)C(=O)N[C@H](C(=O)N[C@H](C(=O)N[C@@H](CCC(N)=O)C(=O)N[C@@H](CO)C(=O)N[C@H](C(=O)N[C@H](C(=O)N[C@@H](CC(N)=O)C(=O)N[C@H](C(=O)N[C@@H](CO)C(=O)O)[C@@H](C)O)[C@@H](C)CC)[C@@H](C)CC)C(C)C)[C@@H](C)CC)[C@@H](C)CC [BNZ-γ, I-K-E-F-L-Q-R-F-I-H-I-V-Q-S-I-I-N-T-S] (H-IKEFLQRFIHIVQSIINTS-OH)
percent of live cells by Guava staining: not impacted
